This assay concerns the target T1, MMP-9 (Homo sapiens, UniProt P14780).
T1 construct: gene MMP9; Purified recombinant human MMP-9 protein with a His-tag (catalog number 10327-H08H)
Nature of the assay: SPR (Biacore […], MMP-9 immobilized by amine coupling). The class given is binding.

Kd data for two compounds are collected here from PMC9030947, “Identification of Novel Natural Product Inhibitors against Matrix Metalloproteinase 9 Using Quantum Mechanical Fragment Molecular Orbital-Based Virtual Screening Methods” (International Journal of Molecular Sciences, 2022).

T1 sequence (P14780 107-707): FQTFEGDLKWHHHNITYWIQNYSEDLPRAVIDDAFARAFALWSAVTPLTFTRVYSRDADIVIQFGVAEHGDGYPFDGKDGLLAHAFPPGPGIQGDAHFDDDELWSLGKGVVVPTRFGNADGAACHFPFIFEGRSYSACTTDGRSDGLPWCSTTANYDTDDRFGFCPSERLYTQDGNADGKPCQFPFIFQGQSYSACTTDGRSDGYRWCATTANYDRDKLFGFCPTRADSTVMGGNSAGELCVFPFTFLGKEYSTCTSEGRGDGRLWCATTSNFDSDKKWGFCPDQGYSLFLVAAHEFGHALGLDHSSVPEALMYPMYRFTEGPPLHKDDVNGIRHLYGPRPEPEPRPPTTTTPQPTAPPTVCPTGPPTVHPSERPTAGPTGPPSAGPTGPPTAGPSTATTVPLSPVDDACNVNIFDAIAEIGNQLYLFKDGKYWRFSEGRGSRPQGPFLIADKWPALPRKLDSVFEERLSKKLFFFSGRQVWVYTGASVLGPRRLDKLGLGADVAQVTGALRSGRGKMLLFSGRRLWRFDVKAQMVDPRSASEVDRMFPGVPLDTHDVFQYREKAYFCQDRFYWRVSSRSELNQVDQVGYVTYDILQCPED

Take `COc1cc2c(cc1O)-c1c(OC)c(O)cc3c1[C@H](C2)NCC3` [compound 9, laetanine]: binding was put at a Kd of 21.6 µM. In the case of `COc1cc(O)c2c(=O)cc(-c3ccc(O)cc3)oc2c1` [compound 10, genkwanin] it was 0.614 µM.
